Measured values as given in patent publication US5147868A, “Thienamycin renal peptidase inhibitors” (Merck & Co., Inc., priority 1992, dated 1992).
pKi: −log10 of the molar value. Values belong to the compound of their own block, whether it stands above or below them.

Assays:
[1] = target: T1, dipeptidase (E.C.3.4.13.11), pig renal enzyme (Sus scrofa, UniProt P22412); assay: in vitro inhibition of hydrolysis of glycyldehydrophenylalanine (GDP) by solubilized renal dipeptidase; assay type: biochemical, pig (hog kidneys)
T1 construct: solubilized preparation of dipeptidase isolated from hog kidneys; from tissue; host or cells: hog kidney
T1 sequence (P22412 17-409): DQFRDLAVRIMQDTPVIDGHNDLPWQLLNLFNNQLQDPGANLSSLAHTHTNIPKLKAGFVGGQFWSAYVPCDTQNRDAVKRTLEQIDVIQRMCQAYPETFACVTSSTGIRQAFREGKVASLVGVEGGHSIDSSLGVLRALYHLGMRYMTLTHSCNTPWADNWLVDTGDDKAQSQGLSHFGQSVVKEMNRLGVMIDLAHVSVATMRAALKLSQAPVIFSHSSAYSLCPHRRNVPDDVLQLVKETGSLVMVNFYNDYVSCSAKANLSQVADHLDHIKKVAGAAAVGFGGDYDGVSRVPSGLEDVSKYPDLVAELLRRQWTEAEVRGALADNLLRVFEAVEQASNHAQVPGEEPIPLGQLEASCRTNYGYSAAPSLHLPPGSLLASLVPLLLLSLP
Description: This measured the ability of compounds to inhibit hydrolysis of glycyldehydrophenylalanine (GDP) by a solubilized preparation of dipeptidase isolated from hog kidneys. The procedure is as follows: to a 1 ml. system containing 50 mM "MOPS" (3-(N-morpholino)propanesulfonic acid) buffer, pH 7.1, is added 5 μg of lyophilized enzyme, and the test compound at a final concentration of 0.1 mM. After a five minute incubation at 37° C., GDP is added to a final concentration of 0.05 mM. Incubation is continued for 10 minutes, at 37° C. and hydrolysis of GDP is measured by the change in optical density with time at 275 nm. Inhibition of the enzyme is gauged by comparison to a standard run containing no inhibitor and is expressed as the inhibitor binding constant, Ki.
A 1 ml. system of 50 mM "MOPS" buffer, pH 7.1, is used. To this is added 5 μg of the pig renal enzyme and an amount of the test compound to bring its final concentration to 0.1 mM. After a five minute incubation at 37° C., an amount of GDP is added to bring its final concentration to 0.05 mM. The system is again incubated for 10 minutes, at 37° C. Hydrolysis of GDP is measured by its change in optical density with time at 275 nm. Inhibition of the enzyme is gauged by comparison to a standard run containing no inhibitor and is presented as percent inhibition.

renal dipeptidase = target: T2, renal dipeptidase (Sus scrofa, UniProt P22412); assay: affinity and hydrolysis of substrates by renal dipeptidase; assay type: biochemical, pig (hog kidneys); conditions: compared with thienamycin
T2 construct: disulfide-linked homodimer
T2 sequence (P22412 17-384): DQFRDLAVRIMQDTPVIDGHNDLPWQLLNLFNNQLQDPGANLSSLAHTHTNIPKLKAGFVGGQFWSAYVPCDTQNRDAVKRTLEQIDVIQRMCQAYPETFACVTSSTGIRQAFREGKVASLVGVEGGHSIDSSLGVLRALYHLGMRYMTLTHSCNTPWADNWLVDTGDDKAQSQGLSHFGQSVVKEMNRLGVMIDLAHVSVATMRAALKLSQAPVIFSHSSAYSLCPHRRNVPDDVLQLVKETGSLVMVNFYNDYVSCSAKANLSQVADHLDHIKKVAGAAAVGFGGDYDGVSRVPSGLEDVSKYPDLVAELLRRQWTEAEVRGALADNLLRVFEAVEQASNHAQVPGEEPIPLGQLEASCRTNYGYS

pKi ([1]; pH 7.1, 37° C., concentration giving 50% inhibition, calculated from multiple assays, GDP substrate): 7.32
SMILES: CC1(C)CC1C(=O)N/C(=C\CCCC(=O)O)C(=O)O (racemic) [Compound 64]

SMILES: NCC(=O)NC(=Cc1ccccc1)C(=O)O [GDP, glycyldehydrophenylalanine]
maximal velocity of hydrolysis by renal dipeptidase (renal dipeptidase): much higher maximal velocity of hydrolysis

SMILES: CCCCC/C=C(\NC(=O)[C@H]1CC1(C)C)C(=O)O [dextrorotatory isomer, (+) Z-2-(2,2-dimethylcyclopropanecarboxamido)-2-octenoic acid]
activity of resolved isomers ([1]; resolved racemic octenoic acid, test not specified): The activity resides in the dextrorotatory isomer
